Results reported in PubChem BioAssay AID1963866 (Molecular Pharmacology Branch, DTP, NCI, 2024).

Test system: PDC KRAS tumor spheroids with HUVEC/MSC, viability
Assay: Anticancer human tumor 349418-098-R-PDC patient-derived lung adenocarcinoma cell line growth inhibition [KRAS2]
Conditions: for IC50: curve of first compound; for viability, T/C: stronger effect = lower value
Description: Multicellular complex tumor spheroid response to RAS pathway inhibitors in combination with a targeted agents in patient-derived cell lines with oncogenic KRAS variants from multiple cancer types
A high-throughput screen of multi-cell type tumor spheroids was designed to identify active combinations of targeted small molecules and KRAS pathway inhibitors. Complex spheroids include a stromal component modeled by human endothelial cells (HUVEC) and fibroblasts modeled by human mesenchymal stem cells (MSCs). The concentration ranges selected for each drug and investigational agent were based upon clinically achievable concentrations if the clinical Cmax of the agent was known.
Compounds. The drugs and investigational agents: BI-3406 (NSC825286), BAY-293 (NSC824723), batoprotafib (TNO155; NSC825523), sotorasib (AMG 510; NSC818433), MRTX1257 (NSC819558), elimusertib (BAY 1895344; NSC800525), molibresib (GSK525762; NSC774829), temuterkib (LY3214996; NSC803410), venetoclax (NSC766270), alisertib (NSC759677), olaparib (NSC753686), talazoparib (NSC767125), erdafitinib (NSC781556), ipatasertib (NSC767898), cabozantinib (NSC761068), nintedanib (NSC756659), abemaciclib (NSC768073), docetaxel (NSC628503), trametinib (NSC758246), and sapanisertib (NSC764658) were obtained from the National Cancer Institute (NCI) Developmental Therapeutics Program Chemical Repository. The FDA-approved anticancer drug set is available from the Developmental Therapeutics Program. […] The stock solutions were prepared in dimethyl sulfoxide (DMSO, Sigma-Aldrich, St. Louis, MO, cat. D2650) at 800-fold the tested concentration and stored at -70 degrees C prior to their use. All drugs and investigational agents were tested over a range starting from a high concentration at or near the clinical Cmax and decreasing in half-log increments. If the clinical Cmax for an agent had not been determined, the highest concentration tested was 10 microM.
Cell Culture. All cells were maintained in an incubator at 37 degrees C and 5% CO2 with 95% humidity. The PDC lines were cultured according to standard operating procedures established by the NCI PDMR (https://pdmr.cancer.gov/sops/default.htm). Briefly, all PDCs were thawed and cultured in Matrigel-coated flasks prepared with a working solution of 1X Ham's F-12 nutrient mix, without supplementation (Invitrogen, Waltham, MA, cat. 11765054), 100 U/mL penicillin-streptomycin (Invitrogen, cat. 15140122), and 2.5% Matrigel (Corning Inc., Corning, NY, cat. 354248) for the first three passages. All PDCs were cultured in complete DMEM/F-12 media containing advanced DMEM/F-12 (Invitrogen, cat. 12634028), 4.9% defined fetal bovine serum, heat inactivated (HyClone Laboratories Inc., Logan, UT, cat. SH30070.03HI), 389 ng/mL hydrocortisone (Sigma-Aldrich, cat. H4001), 9.7 ng/mL human EGF recombinant protein (Invitrogen, cat. PHG0313), 23.4 microg/mL adenine (Sigma-Aldrich, cat. A2786), 97.3 U/mL penicillin-streptomycin (Invitrogen, cat. 15140122), 1.9 mM L-glutamine (Invitrogen, cat. 25030081), and 9.7 microM Y-27632 dihydrochloride (Tocris Bioscience, Bristol, United Kingdom, cat. 1254). The PDCs were cultured in complete DMEM/F12 media without 9.7 microM Y-27632 dihydrochloride for at least two passages prior to the screen. The established cell line HOP-62 was cultured in RPMI 1640 medium, HEPES (Invitrogen, cat. 22400105) with 10% defined fetal bovine serum (HyClone Laboratories Inc., cat. SH30070.03) and 2 mM L-glutamine (Invitrogen, cat. 25030081). The pooled donor HUVEC were cultured in endothelial cell growth medium 2 (PromoCell, Heidelberg, Germany, cat. C-22011) and the hMSC were cultured in mesenchymal stem cell growth medium 2 (PromoCell, cat. C-28009). For all experiments, HUVEC and hMSC were used at passages </=5, while the malignant cell lines were used at passages </=15. […]

[1] = second compound 0.1 µM, first compound 0.000316 µM
[2] = second compound 0.1 µM, first compound 0.001 µM
[3] = second compound 0.1 µM, first compound 0.00316 µM
[4] = second compound 0.1 µM, first compound 0.01 µM
[5] = second compound 0.1 µM, first compound 0.0316 µM
[6] = second compound 0.316 µM, first compound 0.000316 µM
[7] = second compound 0.316 µM, first compound 0.001 µM
[8] = second compound 0.316 µM, first compound 0.00316 µM
[9] = second compound 0.316 µM, first compound 0.01 µM
[10] = second compound 0.316 µM, first compound 0.0316 µM
[11] = second compound 1 µM, first compound 0.000316 µM
[12] = second compound 1 µM, first compound 0.001 µM
[13] = second compound 1 µM, first compound 0.00316 µM
[14] = second compound 1 µM, first compound 0.01 µM
[15] = second compound 1 µM, first compound 0.0316 µM
[16] = second compound 3.16 µM, first compound 0.000316 µM
[17] = second compound 3.16 µM, first compound 0.001 µM
[18] = second compound 3.16 µM, first compound 0.00316 µM
[19] = second compound 3.16 µM, first compound 0.01 µM
[20] = second compound 3.16 µM, first compound 0.0316 µM
[21] = second compound 10 µM, first compound 0.000316 µM
[22] = second compound 10 µM, first compound 0.001 µM
[23] = second compound 10 µM, first compound 0.00316 µM
[24] = second compound 10 µM, first compound 0.01 µM
[25] = second compound 10 µM, first compound 0.0316 µM
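Further: spheroids exposed to compounds for seven days before readout.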

**Q.** How did the IC50 (second compound 0.1 µM) turn out when `CC(=O)Nc1cccc(-n2c(=O)n(C3CC3)c(=O)c3c(Nc4ccc(I)cc4F)n(C)c(=O)c(C)c32)c1` + C=CC(=O)N1CCN(c2nc(=O)n(-c3c(C)ccnc3C(C)C)c3nc(-c4c(O)cccc4F)c(F)cc23)C(C)C1 was run?
**A.** The IC50 was under 100 pM.

**Q.** What about the IC50 (second compound 0.316 µM) of the same compound?
**A.** The IC50 was under 100 pM.

**Q.** What about the IC50 (second compound 1 µM) of the same compound?
**A.** The IC50 was under 100 pM.

**Q.** And the IC50 (second compound 3.16 µM)?
**A.** Its IC50 is under 100 pM.

**Q.** And the IC50 (second compound 10 µM)?
**A.** The IC50 was under 100 pM.

**Q.** What about the viability, T/C (second compound 0.1 µM, first compound 0.0001 µM) of the same compound?
**A.** Its viability, T/C is 48.6%.

**Q.** What about the viability, T/C [1] of the same compound?
**A.** The viability, T/C was 21.9%.

**Q.** What about the viability, T/C [2] of the same compound?
**A.** Its viability, T/C is 20.4%.

**Q.** What about the viability, T/C [3] of the same compound?
**A.** The viability, T/C was 17.6%.

**Q.** What about the viability, T/C [4] of the same compound?
**A.** The viability, T/C was 11%.

**Q.** What about the viability, T/C [5] of the same compound?
**A.** The viability, T/C was 7.55%.

**Q.** And the viability, T/C (second compound 0.316 µM, first compound 0.0001 µM)?
**A.** Its viability, T/C is 34.9%.

**Q.** What about the viability, T/C [6] of the same compound?
**A.** Its viability, T/C is 31.2%.

**Q.** And the viability, T/C [7]?
**A.** The viability, T/C was 25.3%.

**Q.** And the viability, T/C [8]?
**A.** The viability, T/C was 19.1%.

**Q.** What about the viability, T/C [9] of the same compound?
**A.** Its viability, T/C is 11.8%.

**Q.** And the viability, T/C [10]?
**A.** The viability, T/C was 9.88%.

**Q.** And the viability, T/C (second compound 1 µM, first compound 0.0001 µM)?
**A.** The viability, T/C was 39.4%.

**Q.** What about the viability, T/C [11] of the same compound?
**A.** Its viability, T/C is 34.8%.

**Q.** What about the viability, T/C [12] of the same compound?
**A.** The viability, T/C was 23.4%.

**Q.** And the viability, T/C [13]?
**A.** The viability, T/C was 19.3%.

**Q.** And the viability, T/C [14]?
**A.** The viability, T/C was 13.4%.

**Q.** And the viability, T/C [15]?
**A.** The viability, T/C was 8.89%.

**Q.** What about the viability, T/C (second compound 3.16 µM, first compound 0.0001 µM) of the same compound?
**A.** Its viability, T/C is 39.5%.

**Q.** What about the viability, T/C [16] of the same compound?
**A.** Its viability, T/C is 29%.

**Q.** What about the viability, T/C [17] of the same compound?
**A.** Its viability, T/C is 22%.

**Q.** And the viability, T/C [18]?
**A.** The viability, T/C was 20.9%.

**Q.** And the viability, T/C [19]?
**A.** The viability, T/C was 13%.

**Q.** And the viability, T/C [20]?
**A.** The viability, T/C was 10%.

**Q.** What about the viability, T/C (second compound 10 µM, first compound 0.0001 µM) of the same compound?
**A.** The viability, T/C was 25.4%.

**Q.** What about the viability, T/C [21] of the same compound?
**A.** The viability, T/C was 17.4%.

**Q.** What about the viability, T/C [22] of the same compound?
**A.** Its viability, T/C is 18.2%.

**Q.** What about the viability, T/C [23] of the same compound?
**A.** The viability, T/C was 15.9%.

**Q.** And the viability, T/C [24]?
**A.** Its viability, T/C is 10.7%.

**Q.** What about the viability, T/C [25] of the same compound?
**A.** The viability, T/C was 9.82%.

**Q.** `CC(C)n1nc(-c2ccc3oc(N)nc3c2)c2c(N)ncnc21` + C=CC(=O)N1CCN(c2nc(=O)n(-c3c(C)ccnc3C(C)C)c3nc(-c4c(O)cccc4F)c(F)cc23)C(C)C1 was tested. Which IC50 (second compound 0.1 µM) did it give?
**A.** The IC50 was 827 pM.

**Q.** And the IC50 (second compound 0.316 µM)?
**A.** Its IC50 is 865 pM.

**Q.** And the IC50 (second compound 1 µM)?
**A.** The IC50 was 551 pM.

**Q.** What about the IC50 (second compound 3.16 µM) of the same compound?
**A.** The IC50 was under 316 pM.

**Q.** And the IC50 (second compound 10 µM)?
**A.** Its IC50 is under 316 pM.

**Q.** And the viability, T/C [1]?
**A.** The viability, T/C was 87.7%.

**Q.** And the viability, T/C [2]?
**A.** The viability, T/C was 42.6%.

**Q.** And the viability, T/C [3]?
**A.** The viability, T/C was 17.4%.

**Q.** What about the viability, T/C [4] of the same compound?
**A.** Its viability, T/C is 9.72%.

**Q.** And the viability, T/C [5]?
**A.** The viability, T/C was 7.63%.

**Q.** What about the viability, T/C (second compound 0.1 µM, first compound 0.1 µM) of the same compound?
**A.** Its viability, T/C is 6.75%.

**Q.** And the viability, T/C [6]?
**A.** Its viability, T/C is 70.5%.

**Q.** What about the viability, T/C [7] of the same compound?
**A.** Its viability, T/C is 47%.

**Q.** And the viability, T/C [8]?
**A.** The viability, T/C was 19%.

**Q.** What about the viability, T/C [9] of the same compound?
**A.** Its viability, T/C is 8.07%.

**Q.** And the viability, T/C [10]?
**A.** Its viability, T/C is 7.39%.

**Q.** What about the viability, T/C (second compound 0.316 µM, first compound 0.1 µM) of the same compound?
**A.** The viability, T/C was 6.37%.

**Q.** What about the viability, T/C [11] of the same compound?
**A.** The viability, T/C was 68%.

**Q.** What about the viability, T/C [12] of the same compound?
**A.** Its viability, T/C is 30.5%.

**Q.** What about the viability, T/C [13] of the same compound?
**A.** Its viability, T/C is 15.7%.

**Q.** What about the viability, T/C [14] of the same compound?
**A.** Its viability, T/C is 8.07%.

**Q.** What about the viability, T/C [15] of the same compound?
**A.** Its viability, T/C is 6.75%.

**Q.** What about the viability, T/C (second compound 1 µM, first compound 0.1 µM) of the same compound?
**A.** Its viability, T/C is 6.16%.

**Q.** And the viability, T/C [16]?
**A.** Its viability, T/C is 37.9%.

**Q.** What about the viability, T/C [17] of the same compound?
**A.** Its viability, T/C is 35.5%.

**Q.** What about the viability, T/C [18] of the same compound?
**A.** The viability, T/C was 10.3%.

**Q.** And the viability, T/C [19]?
**A.** Its viability, T/C is 7.68%.

**Q.** And the viability, T/C [20]?
**A.** Its viability, T/C is 6.06%.

**Q.** What about the viability, T/C (second compound 3.16 µM, first compound 0.1 µM) of the same compound?
**A.** The viability, T/C was 6.09%.

**Q.** What about the viability, T/C [21] of the same compound?
**A.** Its viability, T/C is 26.1%.

**Q.** And the viability, T/C [22]?
**A.** The viability, T/C was 15.7%.

**Q.** What about the viability, T/C [23] of the same compound?
**A.** Its viability, T/C is 10.1%.

**Q.** And the viability, T/C [24]?
**A.** Its viability, T/C is 7.31%.

**Q.** What about the viability, T/C [25] of the same compound?
**A.** Its viability, T/C is 6.65%.

**Q.** And the viability, T/C (second compound 10 µM, first compound 0.1 µM)?
**A.** Its viability, T/C is 6.48%.
